# Publication PMC6150378, “Chemical Constituents from the Flower of Hosta plantaginea with Cyclooxygenases Inhibition and Antioxidant Activities and Their Chemotaxonomic Significance” (Molecules : A Journal of Synthetic Chemistry and Natural …, 2017)
# How the values were obtained:
# [1] = Antioxidant assay: DPPH radical-scavenging activity; conditions: DPPH method; regression using five concentrations (500, 200, 100, 50, 25 μM); 517 nm, 40 min at 30 °C
# Description: DPPH radical-scavenging activity of the sample was measured as previously described with minor modifications. In a 96-well microplate, 150 μL of DPPH solution (200 μM) was added to 50 μL of the test sample in methanol at different concentrations. The OD values of the reaction mixtures was recorded at 517 nm using a Multiskan Go (Thermo Fisher Scientific, Inc., Waltham, MA, USA) for 40 min at 30 °C. The DPPH radical scavenging activity was calculated by the following equation: DPPH scavenging activity % = […], where Asample represents the absorbance of sample and DPPH, Ablank represents the absorbance of sample and CH3OH, Acontrol represents the absorbance of DPPH and CH3OH. […] L-ascorbic acid was used as the positive control in this experiment. All tests were run in triplicate, and values obtained from experiments were averaged.
# ovine COX-1 = molecular target: T1, ovine COX-1 (Ovis aries, UniProt P05979)
# T1 sequence (P05979 25-600): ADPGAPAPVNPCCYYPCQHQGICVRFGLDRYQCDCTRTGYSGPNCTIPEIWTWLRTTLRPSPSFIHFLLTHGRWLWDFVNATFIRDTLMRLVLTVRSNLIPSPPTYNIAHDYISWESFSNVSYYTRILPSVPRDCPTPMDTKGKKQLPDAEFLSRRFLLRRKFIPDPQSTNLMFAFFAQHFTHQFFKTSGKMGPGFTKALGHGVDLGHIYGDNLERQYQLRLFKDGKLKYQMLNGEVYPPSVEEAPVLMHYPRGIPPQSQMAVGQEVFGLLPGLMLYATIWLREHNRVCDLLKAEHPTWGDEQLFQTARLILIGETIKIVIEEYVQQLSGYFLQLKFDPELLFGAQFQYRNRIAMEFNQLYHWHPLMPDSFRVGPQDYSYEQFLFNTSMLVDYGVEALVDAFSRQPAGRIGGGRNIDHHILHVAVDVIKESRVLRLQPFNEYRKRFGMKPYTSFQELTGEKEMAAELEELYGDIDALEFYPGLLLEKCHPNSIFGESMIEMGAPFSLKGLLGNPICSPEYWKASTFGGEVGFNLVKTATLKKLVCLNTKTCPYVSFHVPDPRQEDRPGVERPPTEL
# Description: (§1) 2,2-Di-phenyl-1-picrylhydrazyl (DPPH) (Sigma Corporation, Ronkonkoma, New York, NY, USA), L-cysteine methyl ester and o-tolyl isothiocyanate (Meilun Biotech. Co. Ltd., Dalian, China), D-glucose, and L-glucose (Energy Chemical, Shanghai, China) were used. COX inhibitor screening assay kit was purchased from Cayman Chemical Company (Ann Arbor, MI, USA).
# ovine COX-2 = molecular target: T2, ovine COX-2 (Ovis aries, UniProt P79208)
# T2 sequence (P79208 17-603): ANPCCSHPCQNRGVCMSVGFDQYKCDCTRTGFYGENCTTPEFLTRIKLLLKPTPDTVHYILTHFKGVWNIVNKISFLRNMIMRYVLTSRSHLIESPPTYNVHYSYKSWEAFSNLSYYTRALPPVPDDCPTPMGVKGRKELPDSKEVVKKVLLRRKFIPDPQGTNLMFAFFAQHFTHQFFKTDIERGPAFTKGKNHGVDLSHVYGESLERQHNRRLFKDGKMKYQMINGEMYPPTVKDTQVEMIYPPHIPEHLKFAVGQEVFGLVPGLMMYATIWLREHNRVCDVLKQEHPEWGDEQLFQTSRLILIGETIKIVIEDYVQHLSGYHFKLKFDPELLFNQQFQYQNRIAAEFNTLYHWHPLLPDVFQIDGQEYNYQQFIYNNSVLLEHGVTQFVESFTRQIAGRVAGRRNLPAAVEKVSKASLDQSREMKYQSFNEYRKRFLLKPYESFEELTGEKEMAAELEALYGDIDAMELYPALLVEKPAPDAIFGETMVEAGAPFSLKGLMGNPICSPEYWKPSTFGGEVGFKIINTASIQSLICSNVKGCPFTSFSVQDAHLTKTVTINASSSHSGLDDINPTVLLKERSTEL
# Description: as §1
IC50 [1] [µM],IC50 (ovine COX-1) [µM],IC50 (ovine COX-2) [µM],Structure (SMILES)
83.2 ± 3,21.6 ± 1.2,45.4 ± 3.3,"COc1cc(O[C@@H]2O[C@H](CO)[C@@H](O)[C@H](O)[C@H]2O)cc2c1C(=O)C[C@@H](c1ccc(O)cc1)O2 [Compound 1, hostaflavanone A]"
282 ± 5.2,15.5 ± 0.6,38.2 ± 3.9,"OC[C@H]1O[C@@H](OCCc2ccccc2)[C@H](O)[C@@H](O)[C@@H]1O [Compound 4, phenethyl-O-β-D-glucopyranoside]"
257 ± 13.8,38.4 ± 1.3,31.7 ± 2.9,"OC[C@H]1O[C@@H](OC[C@H]2O[C@@H](OCCc3ccccc3)[C@H](O)[C@@H](O)[C@@H]2O)[C@H](O)[C@@H](O)[C@@H]1O [Compound 5, phenethanol-β-D-gentiobioside]"
275 ± 14.8,41.2 ± 1.5,35.4 ± 1.6,"C[C@@H]1O[C@@H](OC[C@H]2O[C@@H](OCCc3ccccc3)[C@H](O)[C@@H](O)[C@@H]2O)[C@H](O)[C@H](O)[C@H]1O [Compound 6, phenethyl-O-rutinoside]"
33.9 ± 1.1,–,–,"O=C1O[C@H]([C@@H](O)CO)C(O)=C1O [L-ascorbic acid, reference compound]"
